Ends that are not written are not given here.
Key:
[1] = Plasma stability of thymopentin by HPLC; type: in vitro ADME; details: thymopentin 1.0 mM, equal amount of rat plasma, 37 °C, HPLC-UV 210 nm
Method: To test the above hypothesis, we compared the plasma stability of free thymopentin, a host–guest mixture of thymopentin/ExBP3C, thymopentin/CP5A, and thymopentin/cucurbit[7]uril (CB[7]) using high-performance liquid chromatography (HPLC). According to a previously reported method, the above samples (all containing 1.00 mM of thymopentin) were dissolved in deionized water and then incubated with an equal amount of rat plasma at 37 °C. At predetermined intervals, 100 μL of solution in various groups were withdrawn and quenched with 100 μL of acetonitrile containing 0.1% trifluoroacetic acid (TFA). HPLC analysis was performed on an LC-10AT VP Plus liquid chromatography system with an SPD-10 A VP Plus UV–Vis detector operating at 210 nm and quantified using Shimadzu LC solution Lite. The column used was a C18 reverse-phase column, and the mobile phase was composed of solvent A (water containing 0.1% TFA) and solvent B (70% acetonitrile and 0.1% TFA); the injection volume and flow rate were respectively set as 20 μL and 1.00 mL∙min^−1. The appropriate calibration curve was first derived to calculate the concentration of thymopentin based on the above-mentioned procedure (Figure 5a). […]
Figure 5 (a) Calibration curve obtained by HPLC and used to calculate thymopentin concentration in plasma stability. […] (2.0 mM) as determined by HPLC.

thymopentin = target: T1, thymopentin (Homo sapiens, UniProt P42166); assay: Isothermal titration calorimetry (ITC) of thymopentin into ExBP3C; type: binding; details: deionized water, 25 °C, ExBP3C 40 μM in cell, thymopentin 500 μM in syringe
T1 construct: purchased
Method: An isothermal microcalorimetric titration (ITC) experiment was further carried out in deionized water at 25 °C on a PEAQ-ITC to quantitatively assess the binding affinity and related thermodynamic parameters. A 300 μL solution of ExBP3C was placed in the sample cell at a concentration of 40 μM, and 70 μL of a solution of thymopentin (500 μM) was placed in the injection syringe. The titration was conducted by titration of 18 drops of thymopentin to the ExBP3C solution, and all solutions were degassed prior to titration. […] It should be noted that the binding stoichiometry between ExBP3C and thymopentin was determined to be 0.956 ± 0.011, which was very close to 1:1 and consistent with the above entire encapsulation mode (Figure 3). A larger interaction area of thymopentin/ExBP3C would facilitate the production of a stronger binding affinity.
Figure 3 ITC isotherm for the titration of thymopentin/ExBP3C in aqueous solution at room temperature (top: raw data; bottom: net reaction heat obtained from integration of calorimetric traces).

[2] = tested on: mouse fibroblast cell line (L929); assay: Cytotoxicity, Cell Counting Kit-8; type: cell-based; details: 24 h, 37 °C, 5% CO2, CCK-8, 450 nm; even at relatively high concentrations; mean ± SD, n = 5
Method: (§1) In practical biomedical applications, the safety profiles of supplementary materials are of great concern. Here we preliminarily investigated the cytotoxicity of ExBP3C on a mouse fibroblast cell line (L929) and its hemolytic activity toward rabbit red blood cells (rRBCs). ExBP3C was first dissolved in deionized water and diluted to the required concentrations. For cytotoxicity studies, ExBP3C samples were added to L929 cell-containing wells, which were incubated at 37 °C under 5% CO2 for 24 h, and then the Cell Counting Kit-8 reagent was added into each well to stain for 30 min. […] For the hemolysis assay, ExBP3C samples were added to an erythrocyte suspension at 37 °C for 24 h. After that, the suspension was centrifuged at 1000 rpm for 10 min, and 100 μL of supernatant was transferred to a 96-well plate for measurement by a plate reader. […] On the basis of experimental results and prior studies, we concluded that the administration of ExBP3C at the above examination range was relatively nontoxic on a cellular level.
(§2) Figure 6 (a) Relative viability of mouse fibroblast cell line (L929) after treatment with ExBP3C for 24 h at the indicated concentrations (mean ± SD, n = 5). (b) Hemolysis of ExBP3C toward rabbit red blood cells (rRBCs) after 24 h of incubation time, and the hemolytic rate of rRBCs incubated with 1% Triton X-100 was defined as 100% (mean ± SD, n = 3).

[3] = tested on: rabbit red blood cells (rRBCs); assay: Hemolysis assay; type: cell-based; details: 320 μM, 37 °C, 24 h; 1% Triton X-100 defined as 100%; mean ± SD, n = 3
Method: as §1, §2

binding stoichiometry, N (sites) (thymopentin) | Substance | Residual thymopentin after exposure to rat plasma, in words ([1]; 30 min) | Time until thymopentin became undetectable ([1]; alone or with macrocycle 2.0 mM) | Cytotoxicity against L929 cells, in words [2] | Relative hemolysis [3]
– | RKDVY [thymopentin] | undetectable | ≤ 30 min | – | –
0.956 ± 0.011 | extended biphen[3]arene carboxylate [ExBP3C] | – | – | minimal cytotoxicity | 1.92%

— article PMC11767344, “Entire Encapsulation of Thymopentin by Extended Biphen[3]arene Carboxylate for Improving Plasma Stability” (Molecules, 2025)
